From the Kinase Knowledgebase extract (Sharma et al. 2016)

What was measured:
MAPK14 (human) [1] = target: MAPK14 (human) (UniProt Q16539); test: Inhibition of IL-1 beta Release from LPS Stimulated Whole Blood Culture; conditions: blood cells
MAPK14 (human) [2] = target: MAPK14 (human) (UniProt Q16539); test: Inhibition of TNF-alpha Production from LPS Stimulated PBMC
MAPK14 (human) [3] = target: MAPK14 (human) (UniProt Q16539); test: Inhibition of IL-1beta Production from LPS Stimulated PBMC
MAPK14 (human) [4] = target: MAPK14 (human) (UniProt Q16539); test: Inhibition of TNF-alpha Release in LPS Stimulated Whole Blood Culture; conditions: blood cells
MAPK14 (human) [5] = target: MAPK14 (human) (UniProt Q16539); test: Inhibition of MAPK14 Kinase Activity

Sequence of MAPK14 (human) (Q16539 whole entry, looked up): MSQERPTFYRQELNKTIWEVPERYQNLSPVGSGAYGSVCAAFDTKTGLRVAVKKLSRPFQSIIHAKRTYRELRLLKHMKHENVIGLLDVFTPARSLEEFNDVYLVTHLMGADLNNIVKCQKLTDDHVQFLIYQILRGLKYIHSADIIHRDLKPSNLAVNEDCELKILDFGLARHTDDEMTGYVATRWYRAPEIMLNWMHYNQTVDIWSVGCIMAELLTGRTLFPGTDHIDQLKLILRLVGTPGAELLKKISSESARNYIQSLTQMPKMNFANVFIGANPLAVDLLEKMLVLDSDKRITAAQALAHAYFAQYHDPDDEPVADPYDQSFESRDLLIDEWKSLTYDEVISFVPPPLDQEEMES

| SMILES | IC50 (MAPK14 (human) [1]) [µM] | IC50 (MAPK14 (human) [2]) [µM] | IC50 (MAPK14 (human) [3]) [µM] | IC50 (MAPK14 (human) [4]) [µM] | IC50 (MAPK14 (human) [5]) [µM] |
| --- | --- | --- | --- | --- | --- |
| CSc1nc(-c2ccc(F)cc2)c(-c2ccnc(Nc3ccccc3)c2)[nH]1 |  | 0.34 | 0.03 |  |  |
| CSc1nc(-c2ccc(F)cc2)c(-c2ccnc(F)c2)[nH]1 |  | 2.8 | 0.3 |  |  |
| Fc1ccc(-c2nc(SCc3ccccc3)[nH]c2-c2ccnc(NCc3ccccc3)c2)cc1 |  | 3.2 | 0.2 |  |  |
| CSc1nc(-c2ccc(F)cc2)c(-c2ccnc(NCc3ccccc3)c2)[nH]1 |  | 0.63 | 0.108 |  | 0.65 |
| COc1cc(-c2[nH]c(SC)nc2-c2ccc(F)cc2)ccn1 |  | 1.9 | 0.15 |  |  |
| CC(Nc1cc(-c2[nH]c(SCc3ccc([S+](C)[O-])cc3)nc2-c2ccc(F)cc2)ccn1)c1ccccc1 (centres undefined) | 15.7 | 0.91 | 0.04 | 10 | 0.27 |
| C[S+]([O-])c1ccc(CSc2nc(-c3ccc(F)cc3)c(-c3ccnc(NCc4ccccc4)c3)[nH]2)cc1 (centres undefined) |  | 2 | 0.47 |  |  |
| CSc1nc(-c2ccc(F)cc2)c(-c2ccnc(NCc3ccc(Cl)c(Cl)c3)c2)[nH]1 |  | 0.72 | 0.23 |  |  |
| CSc1nc(-c2ccc(F)cc2)c(-c2ccnc(OC(C)C)c2)[nH]1 | 2.2 | 4.6 | 2.7 | 7.2 |  |
| C[S+]([O-])c1ccc(CSc2nc(-c3ccc(F)cc3)c(-c3ccnc(F)c3)[nH]2)cc1 (centres undefined) |  | 6.9 | 2.45 |  |  |
| Fc1ccc(-c2nc(SCc3ccccc3)[nH]c2-c2ccnc(Cl)c2)cc1 |  | 60 | 1.8 |  |  |

More lines, in order of falling IC50 (MAPK14 (human) [2]), values ahead:

| IC50 (MAPK14 (human) [1]) [µM] | IC50 (MAPK14 (human) [2]) [µM] | IC50 (MAPK14 (human) [3]) [µM] | IC50 (MAPK14 (human) [4]) [µM] | IC50 (MAPK14 (human) [5]) [µM] | SMILES |
| --- | --- | --- | --- | --- | --- |
|  | 40.5 | 2.9 |  |  | Fc1ccc(-c2nc(SCc3ccccc3)[nH]c2-c2ccnc(F)c2)cc1 |
|  | 21 | 0.18 |  |  | COc1ccc(CNc2cc(-c3[nH]c(SCc4ccccc4)nc3-c3ccc(F)cc3)ccn2)cc1 |
|  | 12 | 2.1 |  |  | C[S+]([O-])c1ccc(CSc2nc(-c3ccc(F)cc3)c(-c3ccnc(Cl)c3)[nH]2)cc1 (centres undefined) |
|  | 3.1 | 0.5 |  |  | CSc1nc(-c2ccc(F)cc2)c(-c2cc[nH]c(=O)c2)[nH]1 |
|  | 2.7 | 0.045 |  |  | CC(Nc1cc(-c2[nH]c(SCc3ccccc3)nc2-c2ccc(F)cc2)ccn1)c1ccccc1 (centres undefined) |
|  | 2.2 | 0.35 |  |  | CSc1nc(-c2ccc(F)cc2)c(-c2ccnc(Cl)c2)[nH]1 |
| 22.3 | 0.67 | 0.085 | 17.3 |  | CSc1nc(-c2ccc(F)cc2)c(-c2ccnc(NCc3ccc(C)cc3)c2)[nH]1 |
|  | 0.64 | 0.056 |  |  | COc1ccc(CNc2cc(-c3[nH]c(SC)nc3-c3ccc(F)cc3)ccn2)cc1 |
| 13.3 | 0.5 | 0.15 | 14.8 |  | CSc1nc(-c2ccc(F)cc2)c(-c2ccnc(NCc3ccc(Cl)cc3)c2)[nH]1 |
| 17.1 | 0.35 | 0.031 | 14.9 |  | CSc1nc(-c2ccc(F)cc2)c(-c2ccnc(NCCc3ccccc3)c2)[nH]1 |
